ChEMBL document CHEMBL1687723, “Effects of zidovudine and stavudine on mitochondrial DNA of differentiating 3T3-F442a cells are not associated with imbalanced deoxynucleotide pools” (Antimicrob Agents Chemother, 2009)

Legend:
[1] = Cytotoxicity against differentiated mouse 3T3-F442A cells assessed as effect on total deoxynucleotides content at 10 uM after 2 to 10 days; assay type: cell-based
[2] = Cytotoxicity against differentiated mouse 3T3-F442A cells assessed as increase in total deoxynucleotides content at 10 uM after 2 to 10 days; assay type: cell-based
[3] = Cytotoxicity against differentiated mouse 3T3-F442A cells assessed as depletion of mitochondrial DNA level at 10 uM by real-time PCR; assay type: cell-based
[4] = Cytotoxicity against differentiated mouse 3T3-F442A cells assessed as effect on total deoxynucleotides content at 1 uM after 2 to 10 days; assay type: cell-based
[5] = Cytotoxicity against differentiated mouse 3T3-F442A cells assessed as depletion of mitochondrial DNA level at 1 uM by real-time PCR; assay type: cell-based
[6] = Increase in mitochondrial DNA level in differentiated mouse 3T3-F442A cells at 10 uM by real-time PCR; assay type: ADME
[7] = Increase in mitochondrial DNA level in differentiated mouse 3T3-F442A cells at 1 uM by real-time PCR; assay type: ADME
[8] = Cytotoxicity against differentiated mouse 3T3-F442A cells assessed as increase in TTP content after 10 days; assay type: cell-based; details: 240 h

Compound	Activity [1]	Activity [2]	Activity [3]	Activity [4]	Activity [5]	Activity [6]	Activity [7]	Activity [8]
Cc1cn([C@H]2C=C[C@@H](CO)O2)c(=O)[nH]c1=O [STAVUDINE]	Non-toxic	Toxic	Toxic	Non-toxic	Non-toxic			
Cc1cn([C@H]2C[C@H](N=[N+]=[N-])[C@@H](CO)O2)c(=O)[nH]c1=O [ZIDOVUDINE]	Non-toxic			Non-toxic		Non-toxic	Non-toxic	35%
